From patent publication US7491534B2, “Methods for altering cell fate to generate T-cells specific for an antigen of interest” (priority 2000, dated 2009)
Numbered stars: 1 amine (or outer) side, 2 acyl side, 3 side chain; on linkers, the order of the positions; unused ones are H or OH. Bridge positions count the residues as written; N and C are the ends. Square brackets hold non-standard residues; d marks the D form. Peptide text beside a SMILES is read from it. I, II: the chains in the order shown. Actinocin(9to1) = Cc1c2oc3c(C)ccc(C(=O)[*:1])c3nc-2c(C(=O)[*:2])c(N)c1=O; NMeV = CN[C@H](C(=O)O)C(C)C; Sar = CNCC(=O)O

How the values were obtained:
IL-2 gene [1] = test: RT-PCR of IL-2 mRNA in resting T-cell nuclei incubated in extract; format: biochemical, human; conditions: mAb414 antibody or 0.5 mg/ml wheat germ agglutinin
Method: As controls, nuclei were incubated in stimulated extract containing either 100 μg/ml RNAse A, 100 μg/ml DNAse I, mAb414 antibodies, or the lectin WGA. After 30 minutes at 30° C., nuclei were lysed in the extracts by sonication and 3 μl extract aliquots were removed for RT-PCR analysis using IL-2-specific primers. In particular, total RNA was isolated using the Qiagen RNeasy kit, and 15 ng RNA was used as the template for RT-PCR using the Promega Access RT-PCR System. A 467-bp IL-2 cDNA was amplified using the IL-2-specific primers 5′-[…]-3′ (SEQ ID NO: 3) and 5′-[…]-3′ (SEQ ID NO:4). PCR conditions were 30 cycles of denaturation at 94° C. for one minute, annealing at 60° C. for two minutes, and extension at 72° C. for three minutes. Input stimulated extract and a control stimulated extract containing 1.2 μg total RNA isolated from IL-2-producing T-cells were also analyzed (FIGS. 5A and 10A). […] The PCR product of the expected size (467 base pairs) was absent from input nuclei and input stimulated extract (as expected from FIG. 7), nuclei exposed to unstimulated extract (Nuclei-USE), and nuclei exposed to stimulated extract followed by treatment with 100 μg/ml RNAse A, but not 100 μg/ml DNAse I, prior to RT-PCR. Thus, detection of IL-2 mRNA was the result of IL-2 transcription and not of RNA contamination in input nuclei or in the extract. […]

[2] = test system: NFAT, c-Jun/AP 1, NFκB, and MAP kinase (Erk1 and Erk2); test: Nuclear uptake of transcription factors by resting T-cell nuclei in cell-free extract (immunoblot); format: biochemical, human; conditions: in stimulated extract; ATP or GTP substituted, or nuclear pores blocked
Method: A stimulated T-cell extract was prepared by lysing these T-cells, centrifuging them at 15,000×g, isolating the supernatant, and adding an ATP-generating system to the supernatant. In particular, cells were disrupted with a tip sonicator until over 90% of the cells and nuclei were lysed. The lysate was cleared at 15,000×g for 15 minutes at 4° C. The supernatant was used fresh or aliquoted, frozen in liquid nitrogen, and stored at −80° C. […] Extract from unstimulated T-cells (USE) were prepared from mock (H2O)-stimulated T-cells. A reprogramming reaction consisted of 20 μl or multiples thereof of stimulated extract or unstimulated extract containing 10^5 nuclei and an ATP generating system (1 mM ATP, 10 mM creatine phosphate, 25 μg/ml creatine kinase, and 100 μM GTP).
To generate donor nuclei, resting peripheral blood T-cells were washed and resuspended in 20 volumes of ice-cold hypotonic nuclear buffer (10 mM Hepes, pH 7.5, 2 mM MgCl2, 25 mM KCl, 1 mM DTT, and protease inhibitors). Nuclei were isolated by careful Dounce-homogenization, sedimented at 400×g and washed in nuclear buffer (hypotonic nuclear buffer/250 mM sucrose). HUVEC, HeLa, and NT2 nuclei were isolated similarly. Nuclear integrity prior to, and after, incubation in the extract was monitored by phase contrast microscopy and by nuclear membrane labeling with 10 μg/ml of the lipophilic dye, DiOC6 (FIG. 8A). […]
The ability of other transcription factors from the extract to migrate into the nuclei of T-cells, B-cells, fibroblasts, and HeLa cells was also determined. […] As expected for a whole cell extract, NFAT, AP-1, or NFκB, Oct-1 and Erk (1 and 2) were detected on Western blots of input stimulated extract prior to incubation of the nuclei (FIG. 8B). […] The ubiquitous transcription factor Oct-1 was detected in similar amounts in input nuclei and nuclei exposed to stimulated extract or unstimulated extract (FIG. 8B, Oct-1).

IL-2 gene [3] = test: RT-PCR of IL-2 mRNA in HUVEC, NT2 and HeLa nuclei incubated in extract; format: biochemical, human; conditions: 50 nM actinomycin D; mAb414
Method: As a more stringent indicator of nuclear reprogramming, activation of the IL-2 gene was monitored in nuclei purified from primary human umbilical vein endothelial cells (HUVEC), NT2 neuronal precursors, and HeLa cells after a two hour incubation in the stimulated extract. […] IL-2 activation was dependent on RNA Pol II activity and nuclear import, based on its elimination by 50 nM actinomycin D and mAb414, respectively (FIG. 10C).

IL-2 gene [4] = test: RT-PCR of IL-2 transcription in 293T fibroblast nuclei; format: biochemical, human; conditions: 293T nuclei; mAb414 or 50 nM actinomycin D
Method: Another and more stringent indicator of nuclear reprogramming was induction of IL-2 transcription in 293T fibroblast nuclei exposed to stimulated T-cell extract (FIG. 12D). Total RNA was isolated using the Qiagen RNeasy kit, and 15 ng RNA was used as the template for RT-PCR using the Promega Access RT-PCR System. A 467-bp product was amplified using the IL-2-specific primers 5′-[…]-3′ (SEQ ID NO: 5) and 5′-[…]-3′ (SEQ ID NO: 6) by 30 cycles of denaturation at 94° C. for 30 seconds, annealing at 60° C. for one minute, and extension at 72° C. for one minute. […] As expected from the above results, the IL-2 transcript was absent from input nuclei, input stimulated T-cell extract, and nuclei exposed to stimulated T-cell extract containing either 100 pg/ml RNAse A, mAb414, or 50 nM of the RNA polymerase II (Pol II) inhibitor, actinomycin D (FIG. 12D). Similar results were obtained with neuronal precursor NT2 nuclei and resting T-cell nuclei (FIG. 12D).

293T fibroblasts = test: Permeabilization of 293T fibroblasts judged by propidium iodide uptake; format: cell-based, human; conditions: 200 ng/ml, 50 minutes at 37° C.
Method: For these studies, 293T fibroblasts were grown on 16-mm poly-L-lysine-coated coverslips in RPMI1640 to 100,000 cells/coverslip in 12-well plates. Cells were permeabilized in 200 ng/ml streptolysin O in Ca^2+-free Hanks Balanced Salt Solution (Gibco-BRL) for 50 minutes at 37° C. in regular atmosphere. Over 80% of 293T cells were permeabilized under these conditions, as judged by propidium iodide uptake. Streptolysin O was aspirated; coverslips overlaid with 80 μl of either 293T, Jurkat-Tag, or NT2 extract; and incubated for one hour at 37° C. in CO2 atmosphere. Each extract contained the ATP generating system and 1 mM each of ATP, CTP, GTP and UTP. Extracts from Jurkat-TAg cells were prepared as described above after co-stimulation for 1-2 hours with 40 ng/ml anti-CD3 antibodies (clone SpvT3d obtained from A. M. Rasmussen, Norwegian Radium Hospital, Montebello, Norway) and 0.1 μM PMA. The neuronal precursor NT2 extract was prepared from confluent NT2 cells (Stratagene) by sonication and sedimentation as described above. To reseal plasma membranes, RPMI1640 containing 2 mM CaCl2 (added from a 1 M stock in H2O) was added to the wells, and the cells were incubated for two hours at 37° C. This procedure resealed ˜100% of the permeabilized cells. Ca^2+-containing RPMI was replaced by RPMI, and the cells were expanded for several weeks.

wheat germ agglutinin
IL-2 transcription in stimulated extract with nuclear pore function blocked (IL-2 gene [1]): abolished

Nc1ncnc2c1ncn2[C@@H]1O[C@H](COP(=O)(O)OP(=O)(O)NP(=O)(O)O)[C@@H](O)[C@H]1O [AMP-PNP]
nuclear uptake (import) of transcription factors in resting T-cell nuclei [2]: inhibited

Cc1c2oc3c(C)ccc(C(=O)N[C@@H]4C(=O)N[C@H](C(C)C)C(=O)N5CCC[C@H]5C(=O)N(C)CC(=O)N(C)[C@@H](C(C)C)C(=O)O[C@@H]4C)c3nc-2c(C(=O)N[C@@H]2C(=O)N[C@H](C(C)C)C(=O)N3CCC[C@H]3C(=O)N(C)CC(=O)N(C)[C@@H](C(C)C)C(=O)O[C@@H]2C)c(N)c1=O [actinomycin D] (I: T[dV]P[Sar][NMeV] / II: T[dV]P[Sar][NMeV]; ester I:1-I:C, II:1-II:C; linker I:N-II:N via Actinocin(9to1))
IL-2 activation in stimulated extract with inhibitor (IL-2 gene [3]): elimination | IL-2 transcript in stimulated T-cell extract with inhibitor (IL-2 gene [4]): absent

Nc1nc2c(ncn2[C@@H]2O[C@H](COP(=O)(O)OP(=O)(O)OP(O)(O)=S)[C@@H](O)[C@H]2O)c(=O)[nH]1 [GTPγS]
nuclear uptake (import) of transcription factors in resting T-cell nuclei [2]: inhibited

Nc1ncnc2c1ncn2[C@@H]1O[C@H](COP(=O)(O)OP(=O)(O)OP(O)(O)=S)[C@@H](O)[C@H]1O [ATPγS]
nuclear uptake (import) of transcription factors in resting T-cell nuclei [2]: inhibited

streptolysin O: bacterial toxin used to reversibly permeabilize cells
293T cells permeabilized (293T fibroblasts): Over 80%
